Converted amounts (≈) assume the structure as drawn. Values belong to the compound of their own block, whether it stands above or below them.
How the values were obtained:
BCRP [1] = settings: BCRP inhibitor; cited from earlier work
[2] = system: human colon adenocarcinoma cells (Caco-2); set-up: method as in PMID 19538468; settings: Caco-2, 0.1–10 μg/ml; cited from earlier work
P-gp = experiment: Transport of rhein across the Caco-2 cell monolayer (A to B, B to A); format: in vitro ADME, human; settings: human, Caco-2, with verapamil 50 μmol/ml, loaded onto the A side; rhein 27.3 μg/ml; verapamil 50 μmol/ml (P-gp inhibitor); read-out: ER of rhein in presence of verapamil
Description: (§1) For transport experiments, the cells were seeded at a density of 1 × 10^5 cells/ml on polycarbonate membranes of cell culture inserts (6.5 mm membrane diameter, 0.4 μm pore size, and 0.33 cm^2 surface area) and placed in 12-well cell culture clusters. The transepithelial electrical resistance (TEER) was assessed using a Millicell ERS-2 (Millipore, USA) to reflect the tightness of intercellular junctions. […] The transports of rhein alone, rhein in RE, PE, RPE, and TWCQT across Caco-2 monolayers were investigated. Briefly, the cell monolayers were washed 3 times with D-Hanks. After each wash, the plates were incubated in fresh D-Hanks for 30 min at 37°C. The transport experiments were conducted by adding the test solution to either the apical (A, 0.5 ml) or basolateral side (B, 1.5 ml), while the receiving chamber contained the corresponding volume of prewarmed drug-free D-Hanks. Every experiment was repeated 3 times, and the plates were incubated in an orbital shaker at 37°C. […] sequential samples (50 μl) were taken at different times (30, 60, 90, 120, and 150 min) from both sides of the cell monolayer. The same volume of D-Hanks was immediately added to replace the samples obtained. […] All inhibitors were loaded onto the A side of the monolayers. […] The concentrations of all the samples were analyzed by UPLC-QTOF-HRMS-MS. Data in the present study were presented as mean ± standard deviation (SD). Significant analysis was performed using Statistical Package for Social Sciences (SPSS) version 16.0 (SPSS Inc., Chicago, IL, USA). Statistical significance was determined by one-way ANOVA with Dunnett's test and differences were considered significant when p < 0.05. In the Caco-2 cell model, the rate of transport was obtained from the amount transported versus time curve using linear regression. The apparent permeability (Papp) used as an expression of the absorption rate constant was calculated as follows: Papp = (dQ/dt)/(A × C0), where dQ/dt is the rate at which the compound appears in the receiver chamber (mg/s), A is the surface area of the filter membrane ([…]), and C0 is the initial concentration in the donor chamber (mg/mL). Efflux ratio (ER) was calculated from the following equation: ER = […]), where Papp(B to A) is the Papp value measured in the B to A direction and Papp(A to B) is the Papp value measured in the A to B direction.

BCRP [3] = experiment: as above; format: in vitro ADME, human; settings: human, Caco-2, with Ko143 10 μmol/ml, loaded onto the A side; rhein 27.3 μg/ml; Ko143 10 μmol/ml (BCRP inhibitor); read-out: ER of rhein in presence of Ko143
Description: as §1

Caco-2 cell monolayer = experiment: as above; format: in vitro ADME, human
Description: as §1

MRP2 = experiment: as above; format: in vitro ADME, human; settings: human, Caco-2, with MK-571 50 μmol/ml, loaded onto the A side; rhein 27.3 μg/ml; MK-571 50 μmol/ml (MRP2 inhibitor); read-out: ER of rhein in presence of MK-571
Description: as §1

[4] = as above; format: in vitro ADME, human; settings: human, Caco-2, PE, RPE
Description: as §1

Caco-2 cells = experiment: Cellular uptake of rhein in cultured Caco-2 cell monolayers; format: in vitro ADME, human; settings: rhein 27.3 μg/ml
Description: Cell monolayers were prepared as described for the transport studies. […] Cells attached to the polycarbonate membranes were cut off from the inserts, immersed in 1 ml blank D-Hanks, and sonicated for 15 min. The mixture was centrifuged at 10,000 ×g for 5 min. The concentrations of all the samples were analyzed by UPLC-QTOF-HRMS-MS.

[5] = MTT cytotoxicity assay on Caco-2 cells; format: cell-based; settings: human, 48 h exposure
Description: Caco-2 cells were maintained in DMEM containing 10% FBS (inactivation at 56°C for 30 min), 1% NEAA, and 1% penicillin and streptomycin solution in a humidified atmosphere with 5% CO2 at 37°C. The medium was replaced every 2 days, and the cells were passaged at 80 to 90% confluence using trypsin/phosphate-buffered saline (PBS, pH 7.4). The cytotoxicity of rhein, RE, PE, RPE, and TWCQT to Caco-2 cells was evaluated by MTT assay. Briefly, 200 μl of Caco-2 cells was seeded in a 96-well plate (Coring, NY, USA) at a density of 2 × 10^4 cells/ml. Following incubation for 24 h, different concentrations of test solution were added. Thereafter, 20 μl of 5 mg/mL MTT was added, the medium was removed after 4 h, and the remaining formazan crystals were solubilized with 150 μl of dimethyl sulfoxide (DMSO). The absorbance was measured at 490 nm on a microplate reader (Thermo Scientific, Tokyo, Japan). Cells incubated without the test samples were used as controls. In each MTT assay, every sample was tested in 6 replicates.

SMILES: COc1ccc2c3c([nH]c2c1)[C@H](CC(C)C)N1C(=O)[C@H](CCC(=O)OC(C)(C)C)NC(=O)[C@@H]1C3 [Ko143]
selectivity over P-gp and MRP1 transporters (BCRP [1]): higher than 200 fold

efflux ratio at 150 min, 27.3 μg/ml (P-gp): 2.12 | efflux ratio at 150 min, 27.3 μg/ml (BCRP [3]): 1.27 | ER of rhein at different concentrations (Caco-2 cell monolayer; 8.61, 17.22, 34.44, 27.3, 54.6 and 109.2 μg/ml rhein): more than 1.5 | amounts of rhein transported from B to A after Ko143 (Caco-2 cell monolayer; rhein 27.3 μg/ml, Ko143 10 μmol/ml, p < 0.01): significantly decreased | influence of MK-571 on Papp values of rhein from B to A (Caco-2 cell monolayer; rhein 27.3 μg/ml, MK-571 50 μmol/ml, p < 0.05): significant influences | influence of verapamil on Papp values of rhein from A to B or B to A (Caco-2 cell monolayer; rhein 27.3 μg/ml, verapamil 50 μmol/ml): no significant influence | efflux ratio at 150 min, 27.3 μg/ml (MRP2): 1.98 | Papp at 150 min, 27.3 μg/ml ([4]; apical to basolateral, rhein 27.3 μg/ml, TWCQT 1 mg/ml, read-out: Papp PAB of rhein): 2.31 ± 0.13 ×10⁻⁶ cm/s | Papp at 150 min, 54.6 μg/ml ([4]; apical to basolateral, rhein 54.6 μg/ml, TWCQT 2 mg/ml, read-out: Papp PAB of rhein): 2.58 ± 0.26 ×10⁻⁶ cm/s | Papp at 150 min, 109.2 μg/ml ([4]; apical to basolateral, rhein 109.2 μg/ml, TWCQT 4 mg/ml, read-out: Papp PAB of rhein): 2.52 ± 0.19 ×10⁻⁶ cm/s | Papp B→A at 150 min, 27.3 μg/ml ([4]; basolateral to apical, rhein 27.3 μg/ml, TWCQT 1 mg/ml, read-out: Papp PBA of rhein): 6.54 ± 0.27 ×10⁻⁶ cm/s | Papp B→A at 150 min, 54.6 μg/ml ([4]; basolateral to apical, rhein 54.6 μg/ml, TWCQT 2 mg/ml, read-out: Papp PBA of rhein): 7.02 ± 0.58 ×10⁻⁶ cm/s | Papp B→A at 150 min, 109.2 μg/ml ([4]; basolateral to apical, rhein 109.2 μg/ml, TWCQT 4 mg/ml, read-out: Papp PBA of rhein): 6.72 ± 0.31 ×10⁻⁶ cm/s | efflux ratio at 150 min, 27.3 μg/ml ([4]; rhein 27.3 μg/ml, TWCQT 1 mg/ml, read-out: ER PBA/PAB of rhein): 2.83 | efflux ratio at 150 min, 54.6 μg/ml ([4]; rhein 54.6 μg/ml, TWCQT 2 mg/ml, read-out: ER PBA/PAB of rhein): 2.72 | efflux ratio at 150 min, 109.2 μg/ml ([4]; rhein 109.2 μg/ml, TWCQT 4 mg/ml, read-out: ER PBA/PAB of rhein): 2.38 | intracellular accumulation of rhein after Ko143 (Caco-2 cells; 2 h, Ko143 10 μmol/ml): significantly increased | intracellular amounts of rhein after MK-571 (Caco-2 cells; 2 h, MK-571 50 μmol/ml): no significant changes | intracellular amounts of rhein after verapamil (Caco-2 cells; 2 h, verapamil 50 μmol/ml): no significant changes | cellular uptake of rhein (Caco-2 cells; A compartment, 2 h incubation): 0.68 ng/μg protein
SMILES: O=C(O)c1cc(O)c2c(c1)C(=O)c1cccc(O)c1C2=O [Rhein]
cytotoxic and genotoxic effects [2]: devoid of cytotoxic and genotoxic effects | IC50 at 48 h [5]: 3490 ± 960 µg/mL (≈ 12.3 mM)

Source: paper PMC5831597, “Alleviating the Intestinal Absorption of Rhein in Rhubarb through Herb Compatibility in Tiaowei Chengqi Tang in Caco-2 Cells” (Evidence-based Complementary and Alternative Medicine : eCAM, 2018)
